The results in this text go back to paper PMC6002838 (The Journal of antibiotics, 2017).

≈ marks a conversion by molar mass, not a printed value.

Usually inhibition stands for the drop in the measured response relative to a control, in per cent. In general, CC50 refers to the concentration at which the toxic effect on the cells reaches its halfway point.

One data set addresses MDM2-p53 complex (Homo sapiens, UniProt Q00987). The data set is described as follows: MDM2-p53 complex inhibition assay. The class given is binding. The following applies: for inhibition at 100 µM: read-out: Inhibition of MDM2-p53 complex formation (pre-treat).
Data set [1] relates to KSHV LANA latency antigen. The class given is cell-based, Kaposi Sarcoma Herpesvirus (KSHV). As to conditions: 100 μM, 6 days, BC3 cells, flow cytofluorometry.
Data set [2] can be described thus: Cytotoxicity on HUVEC cells. The class given is cell-based. As to conditions: human, HUVEC cells (primary human umbilical cord endothelial cells).
Data set [3] can be described thus: Cytotoxicity on THP-1 cells. The class given is cell-based. The following applies: human, THP-1 cells (KSHV-negative macrophage cell line).
Data set [4] in a line: Cytotoxicity on BC3 cells. As to conditions: human. The class given is cell-based.
For data set [5], the system named is latent KSHV DNA in BC3 cells. The data set is described as follows: qPCR detection of latent KSHV DNA. Format: cell-based, Kaposi Sarcoma Herpesvirus (KSHV). In general terms: Quantitative PCR measures a nucleic acid by following its amplification.

Sequence of MDM2-p53 complex (Q00987 whole entry, one chain of several): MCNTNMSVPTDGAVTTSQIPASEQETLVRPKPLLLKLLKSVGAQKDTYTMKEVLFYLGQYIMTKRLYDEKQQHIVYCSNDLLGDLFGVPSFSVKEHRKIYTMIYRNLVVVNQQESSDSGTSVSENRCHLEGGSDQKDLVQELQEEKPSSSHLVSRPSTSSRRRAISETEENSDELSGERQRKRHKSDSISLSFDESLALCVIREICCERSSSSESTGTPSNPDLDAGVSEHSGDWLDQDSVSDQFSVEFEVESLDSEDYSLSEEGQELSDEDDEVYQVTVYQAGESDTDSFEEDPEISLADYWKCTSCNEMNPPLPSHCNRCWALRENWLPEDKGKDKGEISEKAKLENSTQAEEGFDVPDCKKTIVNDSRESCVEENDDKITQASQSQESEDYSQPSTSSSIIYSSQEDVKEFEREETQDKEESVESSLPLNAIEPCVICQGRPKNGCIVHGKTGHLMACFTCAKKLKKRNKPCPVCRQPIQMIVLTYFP

`Cc1cc(NS(=O)(=O)c2ccc(N)cc2)no1` [BC6, sulfamethoxazole]: at MDM2-p53 complex, the inhibition at 100 µM is 50%.
`CS(=O)(=O)Nc1ccc([N+](=O)[O-])cc1Oc1ccccc1` [Nimesulide, nimesulide]: in data set [1], the LANA inhibition stood at 54±5% and the “Residual fluorescence (RF)” value was “about 46%”.
Take `Nc1ccc(S(N)(=O)=O)cc1` [SA4, sulfanilamide]: in data set [1], the LANA inhibition came out at 78±6% and the “Residual fluorescence (RF)” value is on record as 21%. The inhibition at 100 µM at MDM2-p53 complex was determined as 56%.
Turning to `[H]/N=C(/N)NS(=O)(=O)c1ccc(N)cc1` [SG3, sulfaguanidine], the CC50 at 6 days in data set [2] was determined as 500 ± 125 µg/mL (≈ 2330 µM); in data set [3], 125 ± 31 µg/mL (≈ 583 µM); in data set [4], 100 ± 25 µg/mL (≈ 467 µM). Further, the “SI (CC50/EC50)” value in data set [5] was 4.76. Moreover, on MDM2-p53 complex, the inhibition at 100 µM is roughly 48%.
Regarding `Nc1ccc(S(=O)(=O)Nc2nccs2)cc1` [ST5, sulfathiazole], the CC50 at 6 days is 250 ± 62 µg/mL (≈ 979 µM) in data set [2], 30 ± 15 µg/mL (≈ 117 µM) in data set [3] and 100 ± 25 µg/mL (≈ 392 µM) in data set [4]. The “SI (CC50/EC50)” value in data set [5] was 16.6. Besides, on MDM2-p53 complex (100 μM, compounds added after formation of the complex), the “Disruption of MDM2-p53 complex (post-treat)” value was “about 48%”. In addition, at MDM2-p53 complex, the inhibition at 100 µM was roughly 70%.
